Measurements from ChEMBL document CHEMBL5291721, “A preclinical secondary pharmacology resource illuminates target-adverse drug reaction associations of marketed drugs” (Nat Commun, 2023).

Assays:
[1] = target: D(1A) dopamine receptor (Homo sapiens, UniProt P21728)
[2] = target: Beta-2 adrenergic receptor (Homo sapiens, UniProt P07550); assay type: functional, cell-based
Note: assay procedure not described here.

Chain of Beta-2 adrenergic receptor (P07550 whole entry): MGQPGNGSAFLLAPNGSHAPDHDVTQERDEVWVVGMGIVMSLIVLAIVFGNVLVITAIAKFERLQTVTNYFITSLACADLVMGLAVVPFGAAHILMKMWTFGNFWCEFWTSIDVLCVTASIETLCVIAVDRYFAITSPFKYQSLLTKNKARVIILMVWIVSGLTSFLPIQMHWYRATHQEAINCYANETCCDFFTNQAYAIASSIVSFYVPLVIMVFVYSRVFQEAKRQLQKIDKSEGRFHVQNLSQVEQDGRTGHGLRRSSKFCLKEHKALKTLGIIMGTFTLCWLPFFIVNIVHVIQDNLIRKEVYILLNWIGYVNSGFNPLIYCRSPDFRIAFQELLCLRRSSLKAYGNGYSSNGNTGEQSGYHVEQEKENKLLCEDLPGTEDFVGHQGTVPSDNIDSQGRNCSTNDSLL
Chain of D(1A) dopamine receptor (P21728 whole entry): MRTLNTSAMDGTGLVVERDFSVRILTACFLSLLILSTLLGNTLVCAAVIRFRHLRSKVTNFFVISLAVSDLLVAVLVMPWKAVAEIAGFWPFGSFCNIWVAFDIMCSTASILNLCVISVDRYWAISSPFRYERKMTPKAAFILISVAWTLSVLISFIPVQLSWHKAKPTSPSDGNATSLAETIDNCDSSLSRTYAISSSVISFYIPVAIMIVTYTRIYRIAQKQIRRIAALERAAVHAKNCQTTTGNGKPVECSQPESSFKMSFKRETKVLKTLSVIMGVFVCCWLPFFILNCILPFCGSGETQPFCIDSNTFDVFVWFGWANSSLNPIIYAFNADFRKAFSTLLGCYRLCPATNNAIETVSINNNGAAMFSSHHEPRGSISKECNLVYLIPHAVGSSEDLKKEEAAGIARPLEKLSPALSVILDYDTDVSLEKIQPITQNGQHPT

| Compound | AC50 [1] [µM] | AC50 [2] [µM] |
| --- | --- | --- |
| NS(=O)(=O)c1cc2c(cc1Cl)NC(CC1CCCC1)NS2(=O)=O (stereo not drawn) [CYCLOPENTHIAZIDE] | > 30 | > 30 |
| CO/N=C(\C(=O)N[C@@H]1C(=O)N2C(C(=O)OCOC(=O)C(C)(C)C)=C(C)CS[C@H]12)c1csc(N)n1 | > 30 | > 30 |
| N/N=c1/cc2c(n[nH]1)CCN(C(=O)c1ccccc1)C2 [ENDRALAZINE] | > 30 | > 30 |
| COCC1=C(C(=O)OC(C)OC(=O)OC(C)C)N2C(=O)[C@@H](NC(=O)/C(=N\OC)c3csc(N)n3)[C@H]2SC1 (stereo partly drawn) [CEFPODOXIME PROXETIL] | > 30 | > 30 |
